US20120258926A1, “FORMULATIONS OF ACADESINE” (priority 2009, published 2012)
Values after ≈ are worked out from the molar mass of the structure shown. Read-outs that look alike come from different tables or passages of the source.

Experiment: Solubility data of acadesine in injectable solution
Format: physicochemical

SMILES: NC(=O)c1ncn([C@@H]2O[C@H](CO)[C@@H](O)[C@H]2O)c1N [Acadesine, 5-aminoimidazole-4-carboxamide (AICA) riboside]
- solubility (5° C., injectable solution pH 6.0-8.0 (with antioxidant), read-out: solubility data supports): 18 mg/mL (≈ 69.7 mM)
- solubility (5° C., injectable solution pH 7.2-8.0, read-out: solubility data supports): 18 mg/mL (≈ 69.7 mM)
- solubility (5° C., injectable solution pH range 8.8-9.6, read-out: Available solubility data supports up to): ≤ 21.5 mg/mL
- solubility (5 °C, injectable solution pH 8.8-9.6, read-out: solubility data supports): 18 mg/mL (≈ 69.7 mM)
- solubility (Room temperature, injectable solution pH 6.0-8.0 (with antioxidant), read-out: solubility data supports): 60 mg/mL (≈ 232 mM)
- solubility (Room temperature, injectable solution pH 7.2-8.0, read-out: solubility data supports): 60 mg/mL (≈ 232 mM)
- solubility (Room temperature, injectable solution pH 8.8-9.6, read-out: solubility data supports): 60 mg/mL (≈ 232 mM)
